{
  "source": "patent US20060052437A1",
  "about": "“Combination of an hmg-coa reductase inhibitor and a nitrate ester” (priority 2002, published 2006)",
  "origin": "cited, not measured here",
  "key": {"[1]": {"conditions": "compared to aspirin"}, "[2]": {"conditions": "at withdrawal from the market, August 2001"}},
  "data": [
    {"compound": "CC(=O)Oc1ccccc1C(=O)Oc1cccc(CO[N+](=O)[O-])c1", "note": "[NCX-4016, 2-acetyloxy-benzoic acid 3-nitroxymethyl-phenyl ester]", "values": [
      {"measurement": "toxicity at gastric level", "setting": "[1]", "result": "not toxic at gastric level"}
    ]},
    {"compound": "COCc1c(C(C)C)nc(C(C)C)c(/C=C/[C@@H](O)C[C@@H](O)CC(=O)O)c1-c1ccc(F)cc1", "note": "[cerivastatin]", "values": [
      {"measurement": "deaths attributable to rhabdomyolysis", "setting": "[2]", "result": 52, "unit": "deaths"}
    ]}
  ]
}
